Series [1] concerns cat eyes. The experiment in a line: Irritant effect in cat eyes (behavioural model, degree of eyelid closure). The note with it: for irritant effect in words, compared to PGE1-isopropyl ester: even at doses 1000 times higher than PGE1-isopropyl ester. The format is in vivo. As for the experimental part:
(§1) The effect of the test compounds on cavernous tissue was tested using penile tissue. As mentioned previously both in the male and female the genitals contain cavernous tissue, and the penile tissue can therefore be used as model for genital cavernous tissue. The general blood vessel relaxing effect of the test compounds was studied by investigating the immediate blood pressure decrease in rats upon intravenous infusion of the test compounds. The acute drop in blood pressure reflects a peripheral vasodilation in the animals brought about by the test compounds. The general irritative effect of the test compounds was studied in the cat eye which is very sensitive to noxious stimuli.
The irritant effect of the prostaglandin analogues was tested using a behavioural model in cats. In this model the irritant effect on the eye is studied by registering the degree of eyelid closure and the behaviour of the animals. Compounds that cause discomfort and pain in the eye cause the animals to close their eyes. The analogues were applied as carboxylic acid esters, to enhance bioavailability, topically on the eye as a single dose at different dose levels. The animals were then followed for several hours at regular intervals. Each compound and dose was tested on a group of 3-6 cats. At least 3 days elapsed between two consecutive tests on the same animals. An arbitrary scale from 0 (absence of irritation) to 3 (marked irritation), with half steps was used.

Series [2] deals with rabbit penile blood vessels. The series is described as follows: Vasorelaxation of isolated rabbit penile blood vessel ring segments in a small vessel myograph, normalized to papaverine. As to conditions: FIG. 2; precontracted with 10^−6 M norepinephrine. The format is cell-based. As for the experimental part: To study the effect of the PGE1 and […]-OH-PGE2 on the penile vasculature, penile blood vessels of the rabbit were isolated and mounted as ring segments in a small vessel myograph (J.P. Trading, Denmark) containing a solution consisting of NaCl 119 mM, KCl 4.7 mM, CaCl2 1.5 mM, MgSO4 1.17 mM, KH2PO4 1.18 mM, NaHCO3 25 mM, EDTA 0.027 mM and glucose 11 mM. The solution also contained indomethacin at a final concentration of about 3 μM, and was continuously bubbled by 95% O2 and 5%CO2. The temperature was kept constant at 37° C. The vessels were stretched and then precontracted using 10^-6 M norepinephrine, and the vasorelaxant effect of the prostaglandin analogues was normalized by comparing it to that of papaverine in the same preparation. Cumulative concentration-response curves were constructed for the analogues.

The test system of series [3] is human corpus cavernosum tissue. The series is described as follows: Relaxation of isolated human penile cavernous tissue precontracted with norepinephrine, normalized to carbachol. The note with it: FIG. 1, parallel curves; about half to one third as potent as PGE1. The series is classed as cell-based. As for the experimental part:
as §1
Human penile cavernous tissue was obtained fresh from surgery, and representative tissue samples were mounted in smooth muscle tissue baths containing a modified Kreb's solution consisting of NaCl 119 mM, KCl 4.6 mM, MgCl2 1.2 mM, NaH2PO4 1.2 mM, NaHCO3 15 mM, CaCl2 1.5 mM and glucose 11 mM. The solution also contained indomethacin at a final concentration of about 3 μM. The solution was continuously bubbled by 95% O2 and 5% CO2, and the temperature was kept at 37° C. […]

Series [4] relates to rabbit eye. As to conditions: rabbits; Hall and Jaitly, 1977; cited from earlier work.
In series [5] the test system is cat eye. The experiment in a line: Intraocular pressure in cats by pneumatonometry after topical administration. The series is classed as in vivo. As to conditions: 1 hour after topical administration; 3 cats, local anaesthesia; before treatment 16.3+/−0.9 mmHg; control eyes 15.7+/−0.7. How it is done: To confirm that 19R-OH-PGE2-methyl ester, which is more hydrophilic than PGE1-isopropyl ester, indeed penetrates into the cornea and the intraocular parts of the eye we measured the intraocular pressure in 3 cats under local anaesthesia before and 1 hour after topical administration of the prostaglandin to the eye. The intraocular pressure was measured by pneumatonometry. One eye was treated with the test compound and the other eye received the vehicle only. In the eyes treated topically with 19R-OH-PGE2-methyl ester the intraocular pressure decreased from 16.3+/−0.9 mmHg to 12.7+/−1.2 mmHg, whereas it was 16.3+/−0.9 mmHg and 15.7+/−0.7 mmHg in the control eyes at the same time points. It is well known that prostaglandins reduce the intraocular pressure in cats (Bito et al., 1989), and it can thus be taken as an evidence that the drug has penetrated into the eye. […] Thus the absence of pain and irritation after administration of 18RS-OH-PGE2, 19R-OH-PGE2 and 20-OH-PGE2 cannot be explained en the basis of increased hydrophilicity and poor bioavailability.

Each structure is given as a SMILES string.

`CCC(O)CC[C@H](O)/C=C/[C@H]1[C@H](O)CC(=O)[C@@H]1C/C=C\CCCC(=O)OC` (stereo partly drawn) [18RS-OH—PGE2-me, 18RS-hydroxy PGE2 methyl ester]: the “irritant effect in words, compared to PGE1-isopropyl ester” value in series [1] is “no or markedly reduced irritant effect”.
`C[C@@H](O)CCC[C@H](O)/C=C/[C@H]1[C@H](O)CC(=O)[C@@H]1C/C=C\CCCC(=O)O` [19R-OH-PGE2, 19R-hydroxy-prostaglandin E2]: in series [2], the “vasodilatory effect (efficacy and potency, PGE1 versus 19R-OH-PGE2)” value was “the same efficacy in inducing vasodilatation and were also about equipotent”. For the same compound, the “factor by which concentration-response curve differs from PGE1 (less potent)” value in series [3] is reported as 2-3. For the same compound, in series [4], the “irritant effect on ocular structures” value was “inducing swelling of the ocular structures” and the lid closure result is “does not cause lid closure”. For the same compound, the “irritation by swelling of the ocular structures” value in series [1] (cat eye) is recorded as “no evidence of such irritation”.
Regarding `COC(=O)CCC/C=C\C[C@H]1C(=O)C[C@@H](O)[C@@H]1/C=C/[C@@H](O)CCC[C@@H](C)O` [19R-OH—PGE2-me, 19-R-hydroxy-prostaglandin E2-methyl ester], the intraocular pressure in series [5] is listed as 12.7+/−1.2 mmHg. In addition, in series [1], the “irritant effect in words, compared to PGE1-isopropyl ester” value is listed as “no or markedly reduced irritant effect”.
Regarding `CCCCC[C@H](O)/C=C/[C@H]1[C@H](O)CC(=O)[C@@H]1CCCCCCC(=O)O` [PGE1, reference compound], in series [2], the “vasodilatory effect (efficacy and potency, PGE1 versus 19R-OH-PGE2)” value was “the same efficacy in inducing vasodilatation and were also about equipotent”.

Source of the values: patent US6562868B1, “Method for treatment of female sexual dysfunction” (Synphora AB, priority 1999, dated 2003).
